Data set [1] addresses T1, recombinant human P‐gp membranes (Homo sapiens, UniProt P08183).
T1 construct: purchased Promega
Put plainly: P-gp ATPase activity (Pgp-Glo assay). The class given is biochemical. Conditions: compound at its IC50; verapamil 0.5 mM. As to the method:
P‐gp ATPase activity was performed with Pgp‐Glo™ Assay Systems (Promega) following manufacturer's instructions. The compounds 4e and 4k, at their IC50s (test compound [TC]) were added to a 96‐well white plate in duplicate and incubated with recombinant human P‐gp membranes. The compound Na3VO4 (0.25 mM) was used as the selective inhibitor of P‐gp ATPase activity while negative control (no treatment [NT]) with only Pgp‐GLO assay buffer was used to provide a measure of unregulated ATPase activity. Verapamil (0.5 mM) is a P‐gp substrate that stimulates P‐gp ATPase activity and represents the positive control for drug stimulation of P‐gp ATPase activity. In fact, it is not a pure inhibitor of P‐gp function as well as Na3VO4, but in association with another P‐gp substrate like doxorubicin, it behaves as a competitive antagonist, that is, an efflux inhibitor. […]
Luminescence was measured using a GLOMAX Multidetection System (Promega). The data were presented as change in luminescence (ΔRLU), calculated as follows: ΔRLUbasal is the difference between the average luminescent signals from Na3VO4‐treated samples (RLUNa3VO4) and untreated (NT) samples (RLUNT), ΔRLUTC that reflects P‐gp ATPase activity in the presence of the test compounds, is the difference between the average luminescent signals from Na3VO4‐treated samples (RLUNa3VO4) and test compound‐treated samples (RLUTC).

The subject of data set [2] is HL‐60R cells. The data set is described as follows: Cell growth assay (MTS), HL-60R MDR variant. Type of data set: cell-based. Conditions: HL60R, 72 h of treatment, mean ± SE. The procedure: (§1) HL‐60 cells were obtained from ATCC® (CCL‐240), whereas its variant HL‐60R was selected for MDR by exposure to gradually increasing concentrations of doxorubicin. MCF‐7 cells were obtained from ATCC® (HTB‐22). The nontumorigenic cell lines hTERT‐RPE‐1 (ATCC, CRL‐4010) and 1‐7HB2 (ECACC 10081201‐Cancer Research Technology) was kindly provided by Prof. Patrizia Cancemi and Prof. Giulio Ghersi (STEBICEF Department, University of Palermo, Italy), respectively. Cells were cultured in a humidified atmosphere at 37°C in 5% CO2. After obtaining the cells, the first passage carried out was assigned passage number 1. Cells with a narrow range of passage number […] were routinely tested for Mycoplasma contamination and were used for all experiments. HL‐60 and HL‐60R cells were cultured in Roswell Park Memorial Institute (RPMI) 1640, while MCF‐7, hTERT‐RPE‐1, and 1‐7HB‐2 cells were cultured in Dulbecco's Modified Eagle Medium (DMEM) (HyClone Europe Ltd.) low glucose, in particular only for 1‐7HB‐2 cells supplemented with hydrocortisone (5 μg/ml) and insulin (10 μg/ml). All media were supplemented with 10% heat‐inactivated fetal calf serum, 2 mM L‐glutamine, 100 U/ml penicillin, and 100 μg/ml streptomycin (all reagents were from EuroClone S.p.A.; GE Healthcare Life Sciences).
(§2) Cells were seeded at 5 × 10^3 cells/well onto 96 well plates and incubated overnight at 37°C. At time 0, the medium was replaced with fresh complete medium supplemented with the [1,2]oxazolo[5,4‐e]isoindoles at large concentrations range. Following 72 h of treatment, 15 µl commercial solution obtained from Promega Corp. containing 3‐(4,5‐dimethylthiazol‐2‐yl)−5‐(3‐carboxymethoxyphenyl)−2‐(4‐sulphophenyl)−2H‐tetrazolium (MTS) and phenazine ethosulfate was added. The plates were incubated in a humidified atmosphere at 37°C in 5% CO2 for 2 h, and the bioreduction of MTS dye was evaluated by measuring the absorbance of each well at 490 nm using a microplate absorbance reader (iMark Microplate Reader; Bio‐Rad Laboratories, Inc.). Cell growth inhibition was expressed as a percentage of the absorbance of the control cells. Data were expressed as mean ± standard error (SE) of at least three different experiments performed in triplicate.

The subject of the next data set is 1‐7HB2 cells. Put plainly: Cell growth assay (MTS), non-tumorigenic 1-7HB2 cells. Type of data set: cell-based. Conditions: 72 h, the maximum concentration used in the MTS assay is reported. The procedure: as §1, §2
(In general: Tetrazolium assays rely on reduction of a dye to a coloured formazan, in cell work by metabolically active cells.)

The next data set deals with MCF‐7 cells. Put plainly: Cell growth assay (MTS), MCF-7 breast cancer cells. Conditions: Homo sapiens, MCF7, 72 h, the maximum concentration used in the MTS assay is reported. The class given is cell-based. As to the method:
as §1, §2

A further data set deals with HL‐60R cell line. Put plainly: Intracellular accumulation of doxorubicin (flow cytometry). Type of data set: cell-based. The procedure: The effects of 4e and 4k on intracellular accumulation of doxorubicin were evaluated in the HL‐60R cell line. […] After 24 h of incubation doxorubicin 2 µM was added for 1 h. The cells were subsequently washed with PBS twice and then resuspended in a final volume of 400 µl of PBS. The fluorescence intensity of doxorubicin was measured by flow cytometry using a FACSAria III instrument (Becton Dickinson).
(In general: Flow cytometry measures light scatter and fluorescence of single cells or particles in a stream.)

Another data set has as its system hTERT‐RPE‐1 cells. The data set is described as follows: Cell growth assay (MTS), non-tumorigenic hTERT-RPE-1 cells. The class given is cell-based. Conditions: hTERT-RPE1, 72 h, the maximum concentration used in the MTS assay is reported, read-out: h‐TERT‐RPE‐1 (IC50). As to the method:
as §1, §2

For data set [3], the system named is XIAP, IAP‐1, Bcl‐2 in HL‐60R cells. Put plainly: Western blot of antiapoptotic factors (survivin, XIAP, IAP-1, Bcl-2). As to conditions: co-treatment of 4k and PTX. Type of data set: cell-based. The procedure:
Whole‐cell lysates were obtained from HL‐60R cells using RIPA buffer (Santa Cruz Biotechnology Inc.) and 25 µg protein was subjected to 10% SDS‐PAGE and transferred to nitrocellulose membrane (Amersham, Pharmacia Biotech) using a semi‐dry fast blot apparatus (Bio‐Rad). Membranes were blocked with 5% (w/v) BSA in PBS‐0.1% (v/v) Tween 20 for 1 h and then filters were incubated with primary antibodies raised against GAPDH (1:20,000; Sigma‐Aldrich Srl Milan), XIAP (1:500; Cell Signaling Technology, Inc), survivin (1:2000; Abcam Limited), Bcl‐2 (1:1000; Santa Cruz Biotechnology Inc.) and IAP‐1 (1:1000; Cell Signaling Technology, Inc). Hybridization was visualized using an enhanced chemiluminescence detection kit (SuperSignal West Femto Maximum Sensitivity Substrate, Thermo Scientific Life Technologies Italia) and the Versa DOC imaging system (BioRad Laboratories). Immunoblots were quantified by densitometry measurements after normalization with glyceraldehyde‐3‐phosphate dehydrogenase and results were expressed as fold changes.
In general terms: In western blotting, separated proteins are transferred to a membrane and probed.

In data set [4] the test system is HL‐60R cells. Put plainly: Viable cell count with Trypan blue exclusion test (cotreatments). The class given is cell-based. The procedure: Potentiation or synergism due to cotreatments were evaluated by viable cell count with Trypan blue exclusion test. Data were expressed as mean ± SE of at least three different experiments performed in duplicate.
Another data set relates to HL‐60 cells. The data set is described as follows: Cell growth assay (MTS), HL-60 cells. Type of data set: cell-based. As to conditions: Homo sapiens, HL-60, 72 h of treatment, mean ± SE. As to the method: as §1, §2
For another data set, the system named is tubulin in HL‐60R cells. Put plainly: Tubulin polymerization assay (soluble/polymerized fraction, western blot), HL-60R. Conditions: 24 h at the IC50 at 72 h. Type of data set: cell-based. As to the method: (§3) To separate cytosolic and cytoskeletal‐associated proteins, cells were rinsed in PEM buffer (0.1 M PIPES, pH 6.94; 2 mM EGTA; 1 mM MgCl2; 10% glycerol; 1 µM protease inhibitors cocktail; 0.5% Nonidet NP‐40), lysed at room temperature for 10 min with the same buffer (200 µl). After centrifugation (14,000 rpm at 4°C for 10 min), the soluble fraction (supernatant) was separated from polymerized fraction (pellet); the latter was resuspended in the same buffer (200 µl).
(§4) Both the fractions were then diluted 3:1 with 4 × SDS‐PAGE sample buffer. Proteins were separated by SDS‐PAGE, and tubulin distribution was analyzed by immunoblotting using anti‐α‐tubulin antibody (Sigma‐Aldrich). Hybridization was visualized using an enhanced chemiluminescence detection kit (SuperSignal West Femto Maximum Sensitivity Substrate, Thermo Scientific Life Technologies Italia) and the Versa DOC imaging system (BioRad Laboratories).

In data set [5] the test system is HL‐60R cells. Put plainly: Cell death by flow cytometry (propidium iodide, preG0-G1 events). The class given is cell-based. As to the method: Cells were collected and washed twice with ice‐cold PBS and then resuspended in a hypotonic fluorochrome solution containing propidium iodide (PI) 50 µg/ml in 0.1% sodium citrate plus 0.03% (v/v) Nonidet P‐40, at 1 × 10^6/ml. After incubation (at least 1 h at 4°C) in this solution, the samples were filtered through nylon cloth, 40 µm mesh, and their fluorescence was analyzed using a FACSCanto instrument (Becton Dickinson). The data were analyzed with BD FACSDiva software v.6.1.2. (Becton Dickinson). Cell death was determined by evaluating the percentage of events accumulated in the preG0‐G1 position.

Another data set has as its system tubulin in HL‐60 cells. The data set is described as follows: Tubulin polymerization assay (soluble/polymerized fraction, western blot), HL-60. Type of data set: cell-based. Conditions: HL-60, 24 h at the IC50 at 72 h. The procedure: as §3, §4

Structures are written as SMILES. Bounds are passed on as bounds.

T1 sequence (P08183 whole entry): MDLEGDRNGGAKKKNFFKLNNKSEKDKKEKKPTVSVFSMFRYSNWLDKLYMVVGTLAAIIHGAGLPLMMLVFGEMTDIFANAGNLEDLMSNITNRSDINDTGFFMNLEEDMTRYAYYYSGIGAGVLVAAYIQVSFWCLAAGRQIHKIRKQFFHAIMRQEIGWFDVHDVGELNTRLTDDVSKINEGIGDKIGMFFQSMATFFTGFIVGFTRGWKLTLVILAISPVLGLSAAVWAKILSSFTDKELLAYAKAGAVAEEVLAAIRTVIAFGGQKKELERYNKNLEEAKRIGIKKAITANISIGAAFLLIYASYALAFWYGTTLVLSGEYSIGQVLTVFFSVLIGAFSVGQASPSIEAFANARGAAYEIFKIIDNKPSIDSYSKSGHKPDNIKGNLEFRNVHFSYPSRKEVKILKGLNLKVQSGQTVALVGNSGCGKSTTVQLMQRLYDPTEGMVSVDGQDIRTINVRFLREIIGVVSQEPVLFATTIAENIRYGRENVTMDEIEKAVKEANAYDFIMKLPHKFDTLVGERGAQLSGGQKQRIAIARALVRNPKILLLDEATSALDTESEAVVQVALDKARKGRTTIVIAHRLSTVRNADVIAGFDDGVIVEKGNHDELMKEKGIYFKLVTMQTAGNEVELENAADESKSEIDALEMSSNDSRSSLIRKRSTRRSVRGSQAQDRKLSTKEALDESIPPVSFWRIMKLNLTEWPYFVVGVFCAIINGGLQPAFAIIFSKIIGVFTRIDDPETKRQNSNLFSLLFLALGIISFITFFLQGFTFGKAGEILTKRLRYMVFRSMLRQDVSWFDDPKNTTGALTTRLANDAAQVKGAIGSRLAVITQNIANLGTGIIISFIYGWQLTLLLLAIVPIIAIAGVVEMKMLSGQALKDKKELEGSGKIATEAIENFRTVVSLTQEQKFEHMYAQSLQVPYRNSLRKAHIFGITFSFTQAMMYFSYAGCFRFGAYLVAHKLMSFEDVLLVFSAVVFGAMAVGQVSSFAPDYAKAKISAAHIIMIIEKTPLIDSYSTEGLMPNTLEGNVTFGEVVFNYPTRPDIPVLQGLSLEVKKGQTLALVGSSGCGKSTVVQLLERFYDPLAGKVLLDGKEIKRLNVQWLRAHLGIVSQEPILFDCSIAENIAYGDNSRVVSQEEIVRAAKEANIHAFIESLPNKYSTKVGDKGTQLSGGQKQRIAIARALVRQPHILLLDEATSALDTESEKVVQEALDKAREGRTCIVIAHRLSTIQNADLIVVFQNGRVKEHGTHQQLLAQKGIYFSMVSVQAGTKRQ

The IC50 is the point on the concentration scale where inhibition reaches its midpoint. For the molecule `COc1ccc(Cn2cc3c(c2-c2cc(OC)c(OC)c(OC)c2)CCc2cnoc2-3)cc1OC` [4k, 7‐(3,4‐dimethoxybenzyl)−6‐(3,4,5‐trimethoxyphenyl)−5,7‐dihydro‐4H‐[1,2]oxazolo[5,4‐e]isoindole], in data set [1], the “effect on verapamil‐stimulated P‐gp ATPase activity” value is given as “significative increase”. The IC50 was 5500 ± 1400 nM with HL‐60R cells [2]; > 20000 nM in the data set on 1‐7HB2 cells; > 50000 nM with MCF‐7 cells; > 20000 nM with hTERT‐RPE‐1 cells; 3000 ± 250 nM in the data set with HL‐60 cells. Besides, the “Fluorescence (%) HL‐60R” value with HL‐60R cell line (5.50 µM for 24 h, without doxorubicin) was 0.3 ± 0.1%. Further, the “Fluorescence (%) HL‐60R (intracellular accumulation of doxorubicin)” value with HL‐60R cell line (pretreated 5.50 µM for 24 h + Doxo 2 µM 1 h) is on record as 22.5 ± 1.1 %. Moreover, the “protein expression of antiapoptotic factors XIAP, IAP‐1 and Bcl‐2” value in data set [3] is “substantial protein expression decrease”. Moreover, the “synergistic / potentiation effect with the reference drugs (VIN or PTX)” value in the data set on HL‐60R cells [4] (cotreatment at sub-cytotoxic concentrations) is “synergistic effect”. For the same molecule, the “effect on soluble / polymerized tubulin fraction” value with tubulin in HL‐60R cells and in the data set with tubulin in HL‐60 cells was “increasing the soluble fraction of tubulin” throughout. The “synergistic effect in induction of cell death” value with HL‐60R cells [5] (HL-60R, in combination with PTX and VIN) was “strong synergistic effect”.
One may read the inhibition as the relative decrease from the control value, in per cent. `CC(=O)O[C@H]1C(=O)[C@@]2(C)[C@H]([C@H](OC(=O)c3ccccc3)[C@]3(O)C[C@H](OC(=O)[C@H](O)[C@@H](NC(=O)c4ccccc4)c4ccccc4)C(C)=C1C3(C)C)[C@]1(OC(C)=O)CO[C@@H]1C[C@@H]2O` [Paclitaxel, reference compound]: the IC50 in the data set on HL‐60R cells [2] stood at 1300 ± 140 nM; in the data set with HL‐60 cells, 20 ± 40 nM. For the same molecule, the inhibition at 1 µM with HL‐60R cells [4] (HL60R, 48 h, alone at 1 µM, read-out: Cell growth inhibition (%)) turned out to be 13 ± 9.2%. In addition, the “effect on soluble / polymerized tubulin fraction” value in the data set with tubulin in HL‐60R cells and in the data set on tubulin in HL‐60 cells was “marked increase in the polymerized fraction” each time. Also, in the data set on HL‐60R cells [5] (48 h, 1 µM), the “Percentage of events accumulated in the pre G0‐G1 position (cell death)” value is 7.6%.

The record behind these values is publication PMC9540667, “Novel insights on [1,2]oxazolo[5,4‐e]isoindoles on multidrug resistant acute myeloid leukemia cell line” (Drug Development Research, 2022).
